Columns and labels:
Wnt pathway = assay: Cellular assay for Wnt pathway activity, LS174T-shl-fLuc clone 5 (LS174T-L5) luciferase reporter assay; assay type: cell-based; settings: Homo sapiens; LS174T TCF luciferase reporter cells, 24 hours incubation
Source text: 1. Cellular Assay for Wnt Pathway Activity LS174T-shl-fLuc Clone 5 (LS174T-L5) Reporter Assay Principle:
This assay is based on an in-vitro luciferase activity readout. The human colon cancer cell line, LS174T was transduced with a lentivirus encoding a short half-life luciferase (with a destabilised PEST sequence construct; construct F1756): 16×TCF/LEF transcription sites—short half life firefly luciferase on a basal pTA promoter—puromycin resistance gene on an EF-1-α promoter). This construct was made using the lentiviral base vector: pCDF1-MCS2-EF1-Puro from System Biosciences (cat. # CD110B-1). The luciferase has a T1/2 of about 60 minutes.
Stable luciferase-expressing clones were selected, using 1 μg/mL puromycin selection and the clones were bulked up.
Compounds that inhibit the Wnt pathway are predicted to inhibit the induction of luciferase transcription by TCF; this will result in reduced luciferase protein production and luciferase signal readout.
Compounds were tested for their Wnt pathway inhibitory activities using the described firefly luciferase reporter cell based assay. An LS174T luciferase reporter cell line was used which contained a T-Cell Factor (TCF) dependent gene promoter firefly luciferase construct.
Compounds, in concentrations from 30 μM to 1 nM, were incubated for 24 hours on the cells. Luciferase activities were determined using the Steady Glo Luciferase Assay System (Promega) and the TOPCOUNT microplate reader (Perkin Elmer). For analysis, the obtained data were normalized against the untreated vehicle control and fitted for determination of the IC50 values using the Excel Fit application of the Excel Software (Microsoft).

[1] = CLint (intrinsic clearance) assay, liver microsomal incubation; assay type: in vitro ADME, human; settings: liver microsomes, pH 7.4; human hepatic microsomes, 0.5 mg/mL protein, class symbols
Experimental: Also shown is the human hepatic microsomal intrinsic clearance (CLint), whereby the following classification is used:
2. CLint (Intrinsic Clearance) Assay
A Tecan Genesis workstation (RWS ASY 150/8) was used to perform the microsomal incubations. Analysis was carried out using a Waters ACQUITY UPLC system coupled to an ABSciex API3000 mass spectrometer. Data analysis was performed using Assay Explorer (Symyx).
Column: Acquity UPLC BEH C18, 2.1×50 mm, 1.7 um (Waters)
Mobile phases: • A=0.1% formic acid in water • B=acetonitrile
Column temperature: 50° C.
0.1 M potassium phosphate buffer pH 7.4 containing 1 mM MgCl2
15 mM NADPH in phosphate buffer
5.0 mg protein/mL liver microsomes in phosphate buffer
Each experiment consists of 12 test and 2 reference compounds. The reference compounds are incubated as a cocktail.
Dilution of test compounds was done in 2 steps from a 10 mM DMSO stock solution. First 4 μL stock solution was added to 196 μL of 20% DMSO in potassium phosphate buffer pH 7.4. In a second step 10 μL of the first dilution were added to 1890 μL potassium phosphate buffer and 100 μL internal standard solution to a final concentration of […].
100 μL of the final compound dilution were aliquoted into a 96 deep well plate. 12.5 μL liver microsomes were added to each well (0.5 mg/mL final protein concentration) and the samples preincubated for 5 min at 37° C. and 800 rpm agitation.
After the preincubation, 250 μL cold acetonitrile were added to the 0 min samples to prevent a reaction. Following this, 12.5 μL NADPH solution were added to all wells to start the incubation, with the exception of the 0 min and 30 min controls without cofactor, where the NADPH was substituted for phosphate buffer.
The incubations were stopped after 5, 10, 20 and 30 min by adding 250 μL cold acetonitrile to the individual wells.
The quenched samples were then centrifuged at 4000 g for 1 h at 4° C. 100 μL of the supernatant were transferred into 96 well plates for analysis.
The metabolic stability of each compound was determined by measurement of the change in LC-MS/MS peak area over time. Assay Explorer software was used to automatically calculate the slope k of the decline. The intrinsic clearance (CLint) of each compound was then calculated according to the formula: CLint(μL/min/mg protein)=k1000/protein concentration.

## Cn1ncc2cc(-c3cnc(N)c(Cl)c3N3CCC4(CC3)NC(=O)NC4=O)ccc21 [Compound 8, 8-[2-Amino-3-chloro-5-(1-methyl-1H-indazol-5-yl)-pyridin-4-yl]-1,3,8-triaza-spiro[4.5] decane-2,4-dione]
Wnt pathway
  IC50: 29 nM
[1]
  microsomal CLint at 0.8 μM: < 10 µL/min/mg

## Cn1cc(-c2ccc(-c3cnc(N)c(C(F)(F)F)c3N3CCC4(CCNC4=O)CC3)cc2)cn1 [Compound 43, 8-{2-Amino-5-[4-(1-methyl-1H-pyrazol-4-yl)-phenyl]-3-trifluoromethyl-pyridin-4-yl}-2,8-diaza-spiro[4.5] decan-1-one]
Wnt pathway
  IC50: 46 nM
[1]
  microsomal CLint at 0.8 μM: 10 to 50 µL/min/mg

## Cn1ncc2cc(-c3cnc(N)c(Cl)c3N3CCC4(CC3)CC(=O)NC4=O)ccc21 [Compound 17, 8-[2-Amino-3-chloro-5-(1-methyl-1H-indazol-5-yl)-pyridin-4-yl]-2,8-diaza-spiro[4.5] decane-1,3-dione]
Wnt pathway
  IC50: 2 nM
[1]
  microsomal CLint at 0.8 μM: 10 to 50 µL/min/mg

## CN1C(=O)Cc2cc(-c3cnc(N)c(Cl)c3N3CCC4(CC3)CNC(=O)O4)ccc21 [Compound 36, 8-[2-Amino-3-chloro-5-(1-methyl-2-oxo-2,3-dihydro-1H-indol-5-yl)-pyridin-4-yl]-1-oxa-3,8-diaza-spiro[4.5] decan-2-one]
Wnt pathway
  IC50: > 300 nM

## CN1C(=O)CCc2cc(-c3cnc(N)c(Cl)c3N3CCC4(CCNC4=O)CC3)ccc21 [Compound 14, 6-[6-Amino-5-chloro-4-(1-oxo-2,8-diaza-spiro[4.5]dec-8-yl)-pyridin-3-yl]-1-methyl-3,4-dihydro-1H-quinolin-2-one]
Wnt pathway
  IC50: 40 nM
[1]
  microsomal CLint at 0.8 μM: 10 to 50 µL/min/mg

## CCN1Cc2cc(-c3cnc(N)c(Cl)c3N3CCC4(CCNC4=O)CC3)ccc2S1(=O)=O [Compound 68, 8-[2-Amino-3-chloro-5-(2-ethyl-1,1-dioxo-2,3-dihydro-1H-1l6-benzo[d]isothiazol-5-yl)-pyridin-4-yl]-2,8-diaza-spiro[4.5]decan-1-one]
Wnt pathway
  IC50: 59 nM
[1]
  microsomal CLint at 0.8 μM: < 10 µL/min/mg

## Cn1ncc2ccc(-c3cnc(N)c(Cl)c3N3CCC4(CCNC4=O)CC3)cc21 [Compound 23, 8-[2-Amino-3-chloro-5-(1-methyl-1H-indazol-6-yl)-pyridin-4-yl]-2,8-diaza-spiro[4.5] decan-1-one]
Wnt pathway
  IC50: 21 nM
[1]
  microsomal CLint at 0.8 μM: 10 to 50 µL/min/mg

## Nc1ncc(-c2ccc3c(N)n[nH]c3c2)c(N2CCC3(CC2)NC(=O)NC3=O)c1Cl [Compound 5, 8-[2-Amino-5-(3-amino-1H-indazol-6-yl)-3-chloro-pyridin-4-yl]-1,3,8-triaza-spiro[4.5] decane-2,4-dione]
Wnt pathway
  IC50: 1500 nM
[1]
  microsomal CLint at 0.8 μM: < 10 µL/min/mg

## CCn1ncc2cc(-c3cnc(N)c(Cl)c3N3CCC4(CCNC4=O)CC3)ccc21 [Compound 72, 8-[2-Amino-3-chloro-5-(1-ethyl-1H-indazol-5-yl)-pyridin-4-yl]-2,8-diaza-spiro[4.5] decan-1-one]
Wnt pathway
  IC50: 155 nM
[1]
  microsomal CLint at 0.8 μM: 100 to 150 µL/min/mg

## Nc1ncc(-c2ccc3cc[nH]c3c2)c(N2CCC3(CC2)CNC(=O)O3)c1Cl [Compound 29, 8-[2-Amino-3-chloro-5-(1H-indol-6-yl)-pyridin-4-yl]-1-oxa-3,8-diaza-spiro[4.5] decan-2-one]
Wnt pathway
  IC50: 30 nM
[1]
  microsomal CLint at 0.8 μM: 100 to 150 µL/min/mg

## Cn1cc(-c2ccc(-c3cnc(N)c(Cl)c3N3CCC4(CC3)NCCNC4=O)cc2)cn1 [Compound 40, 9-(2-Amino-3-chloro-5-(4-(1-methyl-1H-pyrazol-4-yl)phenyl)pyridin-4-yl)-1,4,9-triazaspiro[5.5]undecan-5-one]
Wnt pathway
  IC50: 100 nM
[1]
  microsomal CLint at 0.8 μM: 10 to 50 µL/min/mg

## CN1CCN(c2ccc(-c3cnc(N)c(Cl)c3N3CCC(C#N)CC3)cc2)CC1 [Compound 30, 1-(2-Amino-3-chloro-5-(4-(4-methylpiperazin-1-yl)phenyl)pyridin-4-yl)piperidine-4-carbonitrile]
Wnt pathway
  IC50: 12 nM
[1]
  microsomal CLint at 0.8 μM: 10 to 50 µL/min/mg

## Nc1ncc(-c2ccc3c(c2)CC(=O)N3)c(N2CCC3(CCNC3=O)CC2)c1Cl [Compound 33, 8-[2-Amino-3-chloro-5-(2-oxo-2,3-dihydro-1H-indol-5-yl)-pyridin-4-yl]-2,8-diaza-spiro[4.5] decan-1-one]
Wnt pathway
  IC50: 154 nM
[1]
  microsomal CLint at 0.8 μM: 10 to 50 µL/min/mg

## Nc1ncc(-c2ccc3c(N)n[nH]c3c2)c(N2CCC3(CC2)CNC(=O)O3)c1Cl [Compound 37, 8-[2-Amino-5-(3-amino-1H-indazol-6-yl)-3-chloro-pyridin-4-yl]-1-oxa-3,8-diaza-spiro[4.5] decan-2-one]
Wnt pathway
  IC50: 2300 nM

## Nc1ccc(-c2ccc(-c3cnc(N)c(Cl)c3N3CCC4(CCNC4=O)CC3)cc2)cn1 [Compound 28, 8-{2-Amino-5-[4-(6-amino-pyridin-3-yl)-phenyl]-3-chloro-pyridin-4-yl}-2,8-diaza-spiro[4.5] decan-1-one]
Wnt pathway
  IC50: 12 nM
[1]
  microsomal CLint at 0.8 μM: ≥ 150 µL/min/mg

## Cn1ncc2cc(-c3cnc(N)c(C(F)(F)F)c3N3CCC(C(N)=O)CC3)ccc21 [Compound 47, 2′-Amino-5′-(1-methyl-1H-indazol-5-yl)-3′-trifluoromethyl-3,4,5,6-tetrahydro-2H-[1,4′] bipyridinyl-4-carboxylic acid amide]
Wnt pathway
  IC50: 110 nM
[1]
  microsomal CLint at 0.8 μM: 50 to 100 µL/min/mg

## Nc1ncc(-c2ccc3c(N)n[nH]c3c2)c(N2CCC3(CCNC3=O)CC2)c1C(F)(F)F [Compound 44, 8-[2-Amino-5-(3-amino-1H-indazol-6-yl)-3-trifluoro-methyl-pyridin-4-yl]-2,8-diaza-spiro[4.5] decan-1-one]
Wnt pathway
  IC50: 270 nM
[1]
  microsomal CLint at 0.8 μM: 10 to 50 µL/min/mg

## Cn1cc(-c2ccc(-c3cnc(N)c(C(F)(F)F)c3N3CCC4(CC3)CNC(=O)O4)cc2)cn1 [Compound 41, 8-{2-Amino-5-[4-(1-methyl-1H-pyrazol-4-yl)-phenyl]-3-trifluoromethyl-pyridin-4-yl}-1-oxa-3,8-diaza-spiro[4.5] decan-2-one]
Wnt pathway
  IC50: 75 nM
[1]
  microsomal CLint at 0.8 μM: < 10 µL/min/mg

## Nc1ncc(-c2ccc3oc(=O)[nH]c3c2)c(N2CCC3(CC2)CNC(=O)O3)c1Cl [Compound 9, 8-[2-Amino-3-chloro-5-(2-oxo-2,3-dihydro-benzooxazol-5-yl)-pyridin-4-yl]-1-oxa-3,8-diaza-spiro[4.5] decan-2-one]
Wnt pathway
  IC50: 98 nM
[1]
  microsomal CLint at 0.8 μM: 10 to 50 µL/min/mg

## Nc1ncc(-c2ccc3[nH]ncc3c2)c(N2CCC3(CCNC3=O)CC2)c1Cl [Compound 35, 8-[2-Amino-3-chloro-5-(1H-indazol-5-yl)-pyridin-4-yl]-2,8-diaza-spiro[4.5] decan-1-one]
Wnt pathway
  IC50: 85 nM

## Cn1cc(-c2ccc(-c3cnc(N)c(Cl)c3N3CCC4(CC3)CC(=O)NC4=O)cc2)cn1 [Compound 38, 8-(2-Amino-3-chloro-5-(4-(1-methyl-1H-pyrazol-4-yl)phenyl)pyridin-4-yl)-2,8-diazaspiro[4.5]decane-1,3-dione]
Wnt pathway
  IC50: 2 nM

## Nc1ncc(-c2ccc(-c3cnn(CCO)c3)cc2)c(N2CCC3(CC2)NCCNC3=O)c1Cl [Compound 45, 9-(2-Amino-3-chloro-5-{4-[1-(2-hydroxy-ethyl)-1H-pyrazol-4-yl]-phenyl}-pyridin-4-yl)-1,4,9-triaza-spiro[5.5] undecan-5-one]
Wnt pathway
  IC50: 560 nM

## Cn1cc(-c2ccc(-c3cnc(N)c(C(F)(F)F)c3N3CCC(C(N)=O)CC3)cc2)cn1 [Compound 48, 2′-Amino-5′-[4-(1-methyl-1H-pyrazol-4-yl)-phenyl]-3′-trifluoro-methyl-3,4,5,6-tetrahydro-2H-[1,4′] bipyridinyl-4-carboxylic acid amide]
Wnt pathway
  IC50: 160 nM

— patent US9834541B2, “2-aminopyridine compounds” (Merck Patent GmbH, priority 2012, dated 2017)
